Where “and” joins values, the source holds several entries; their conditions need not be identical. Equal values may be shown once.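 1) Cells in 96-well plates. 2) Compound, 48 h, 5 concentrations. 3) Linear interpolation between surrounding doses. 4) Unreached endpoint = highest concentration. The concentration for 50% growth inhibition is given as GI50. TGI marks complete inhibition of growth.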
What was measured:
Assay in all cases: NCI anticancer screen, dose series, 48 h
A498 renal = test system: A498 renal
MOLT-4 leukemia = test system: MOLT-4 leukemia
NCI-H23 lung = test system: NCI-H23 lung
OVCAR-3 ovarian = test system: OVCAR-3 ovarian
RPMI-8226 leukemia = test system: RPMI-8226 leukemia
SF-268 CNS = test system: SF-268 CNS
SF-539 CNS = test system: SF-539 CNS
SNB-75 CNS = test system: SNB-75 CNS
U251 CNS = test system: U251 CNS
UO-31 renal = test system: UO-31 renal

SMILES	TGI (A498 renal)	TGI (MOLT-4 leukemia)	TGI (NCI-H23 lung)	TGI (OVCAR-3 ovarian)	TGI (RPMI-8226 leukemia)	TGI (SF-268 CNS)	TGI (SF-539 CNS)	TGI (SNB-75 CNS)	TGI (U251 CNS)	TGI (UO-31 renal)	GI50 (A498 renal)	GI50 (MOLT-4 leukemia)	GI50 (OVCAR-3 ovarian)	GI50 (RPMI-8226 leukemia)	GI50 (SF-268 CNS)	GI50 (SF-539 CNS)	GI50 (SNB-75 CNS)	GI50 (U251 CNS)	GI50 (UO-31 renal)	GI50 (NCI-H23 lung)
COc1ccccc1NC(=O)C1=C(C)NC(C)=C(C(=O)Nc2ccccc2OC)C1c1ccc(N(C)C)cc1	> 100 µM	64.5 µM	82.3 µM	44.1 µM	55.4 µM	> 100 µM	73.7 µM	80.6 µM	> 100 µM	> 100 µM	–	–	–	–	–	–	–	–	–	–
COC(=O)C1Cc2c([nH]c3ccccc23)C(c2ccccc2O)N1Cc1ccccc1 (centres undefined)	37.8 µM	> 46.4 µM	> 46.4 µM	39.2 µM	> 100 µM	> 31.6 µM	65.2 µM	18.8 µM	39.5 µM	> 46.4 µM	–	–	–	–	–	–	–	–	–	–
Nc1cc2[nH]cnc2c(=O)[nH]1	298 µM	> 300 µM	> 300 µM	92.4 µM	> 300 µM	> 300 µM	> 234 µM	> 300 µM	> 300 µM	> 300 µM	–	–	–	–	–	–	–	–	–	–
COc1c(Sc2ccccc2)cc(Sc2ccccc2)c2cccnc12	82.3 µM	48.1 µM	62.1 µM	61.2 µM	50 µM	> 100 µM	85.5 µM	66 µM	70.7 µM	54 µM	–	–	–	–	–	–	–	–	–	–
Clc1ccc2c(c1)[nH]c1c2nc2sccn21	> 100 µM	> 100 µM	> 100 µM	> 100 µM	> 100 µM	> 100 µM	> 100 µM	> 100 µM	> 100 µM	> 100 µM	–	–	–	–	–	–	–	–	–	–
O=C(CSc1nc(-c2ccccc2)c(-c2ccccc2)[nH]1)NNC(=S)Nc1ccccc1	> 100 µM	> 100 µM	> 100 µM	> 100 µM	> 100 µM	> 100 µM	> 100 µM	> 100 µM	> 100 µM	> 100 µM	–	–	–	–	–	–	–	–	–	–
COc1cc2c(c(OC)c1OC)-c1ccc(O)c(=O)cc1[C@@H](NC(C)=O)CC2	> 100 µM and 44.1 µM	45.8 µM and 34.2 µM	39.5 µM	> 100 µM	> 100 µM and 36.9 µM	> 100 µM	45.5 µM and 44 µM	> 100 µM	> 100 µM and 35.4 µM	63.8 µM and 89 µM	15 µM	4.66 µM	4.35 µM	8.15 µM	7.42 µM	6.08 µM	16.3 µM	5.93 µM	4.42 µM	–
CN1C(=O)C2C=CC1C1CCC2N(C)C1=O (centres undefined)	> 100 µM	> 100 µM	> 100 µM	> 100 µM	> 100 µM	> 100 µM	> 100 µM	> 100 µM	> 100 µM	> 100 µM	–	–	–	–	–	–	–	–	–	–
CCOC(=O)Cc1csc(N=Nc2c(O)[nH]c3ccccc23)n1	> 100 µM	73.1 µM	> 100 µM	> 100 µM	> 100 µM	> 100 µM	> 100 µM	96.6 µM	> 100 µM	> 100 µM	–	–	–	–	–	–	–	–	–	–
COc1ccc(N2C(=O)C3c4[nH]c5ccccc5c4C4CCCCCCC4C3C2=O)cc1 (centres undefined)	52.3 µM	37.9 µM	31.2 µM	16.8 µM	> 100 µM	31.3 µM	21.5 µM	27.8 µM	16.5 µM	44.1 µM	–	–	–	–	–	–	–	–	–	–
CC(=O)c1cccc(-c2cccc(-c3ccn(CCN4CCOCC4)n3)c2)c1	> 20 µM	> 20 µM	> 20 µM	> 20 µM	> 20 µM	> 20 µM	> 20 µM	> 20 µM	> 20 µM	> 20 µM	14.5 µM	> 20 µM	> 20 µM	> 20 µM	> 20 µM	> 20 µM	> 20 µM	> 20 µM	> 20 µM	> 20 µM
CCC[CH2][Sn]1([CH2]CCC)[O]C(=O)c2ccc(N)cc2[O]1	0.763 µM	2.43 µM	1.61 µM	2.52 µM	1.79 µM	1.5 µM	1.94 µM	1.84 µM	1.81 µM	1.82 µM	0.278 µM	0.254 µM	1.24 µM	0.143 µM	0.259 µM	0.691 µM	0.116 µM	0.471 µM	0.465 µM	0.336 µM
CCOC(=O)Nc1nc2cc(OCC)ccc2s1	> 100 µM	> 100 µM	> 100 µM	> 100 µM	> 100 µM	> 100 µM	> 100 µM	> 100 µM	> 100 µM	> 100 µM	6.46 µM	31.7 µM	35 µM	> 65.8 µM	> 79.7 µM	> 100 µM	53.8 µM	26.8 µM	> 100 µM	> 100 µM
O=C(O)Cc1ccccc1CCc1ccccc1Cl	> 100 µM	> 100 µM	> 100 µM	> 100 µM	> 100 µM	> 100 µM	> 100 µM	> 100 µM	> 100 µM	> 100 µM	–	–	–	–	–	–	–	–	–	–
O=C(N/N=C/c1ccc(Cl)cc1)c1[nH]c2ccc(Cl)cc2c1-c1ccccc1	> 100 µM	> 32 µM	35.5 µM	0.0584 µM	0.0556 µM	> 42.3 µM	0.267 µM	> 51.2 µM	4.68 µM	> 65 µM	15.4 µM	0.108 µM	0.0265 µM	0.0193 µM	0.161 µM	0.0947 µM	1.02 µM	0.255 µM	0.268 µM	0.328 µM
COc1ccc([C@@H](O)c2cc(-c3ncnc4cc(N5CCOCC5)ccc34)c(F)cc2Cl)nn1	0.943 µM	41.1 µM	94.6 µM	20.3 µM	22.4 µM	> 100 µM	12.7 µM	11.4 µM	53.8 µM	23 µM	0.228 µM	1.08 µM	1.41 µM	3.58 µM	5.99 µM	2.13 µM	0.371 µM	6.22 µM	0.646 µM	8 µM
COc1cc(/C=C2\CN(C(=O)CCN3CCC(=NO)CC3)C/C(=C\c3cc(OC)c(OC)c(OC)c3)C2=O)cc(OC)c1OC	2.07 µM	12.1 µM	1.39 µM	1.26 µM	0.851 µM	1.95 µM	0.928 µM	2 µM	1.01 µM	2.51 µM	0.658 µM	0.328 µM	0.391 µM	0.268 µM	0.535 µM	0.277 µM	0.425 µM	0.291 µM	1.11 µM	0.342 µM
CCOC(=O)C1=C(Nc2ccc(Cl)c(Cl)c2)OC/C1=N\NC(=O)Cc1ccccc1	> 100 µM	> 100 µM	> 100 µM	> 100 µM	> 100 µM	> 100 µM	> 100 µM	> 100 µM	> 100 µM	> 100 µM	–	–	–	–	–	–	–	–	–	–
Clc1ccc(-c2c(C3=NCCN3)nnn2-c2ccccc2)cc1	> 100 µM	> 100 µM	> 100 µM	> 100 µM	> 100 µM	> 100 µM	> 100 µM	> 100 µM	> 100 µM	> 100 µM	–	–	–	–	–	–	–	–	–	–
COc1cc(/C=C/c2ccc(OC)c(OC)c2OC)cc(OC)c1OC	> 73.9 µM	> 62 µM	69.2 µM	39.3 µM	37.1 µM	> 64.2 µM	37 µM	56.7 µM	36.2 µM	46.3 µM	–	–	–	–	–	–	–	–	–	–
Oc1c(CN2CCCC2)cc(CSCc2ccccc2)c2cccnc12	8.08 µM	2.74 µM	5.12 µM	2.7 µM	6.81 µM	14.9 µM	3.93 µM	15.9 µM	11.9 µM	1.38 µM	2.26 µM	0.671 µM	0.44 µM	1.42 µM	0.752 µM	1.35 µM	1.5 µM	0.789 µM	0.103 µM	1.31 µM
Clc1ccc2c(c1)C(N1CCNCC1)=Nc1ccccc1O2	5.46 µM	4.19 µM	14.3 µM	10.4 µM	4.93 µM	11.8 µM	3.36 µM	2.79 µM	2.99 µM	10.6 µM	3.1 µM	1.82 µM	2.8 µM	1.96 µM	2.65 µM	1.75 µM	1.13 µM	1.51 µM	1.64 µM	3.46 µM

Source: PubChem BioAssay (NCI)
